# According to PubChem BioAssay (NCI):
#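 Each compound was tested at five concentrations against cells in 96-well plates for 48 hours. The concentration for 50% growth inhibition is given as GI50. At the TGI there is no net growth.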
# Assays:
# Assay in all cases: DTP human tumour cell line panel, 48 h
# HS 578T breast = tested on: HS 578T breast
# HCT-116 colon = tested on: HCT-116 colon
# MDA-MB-231 breast = tested on: MDA-MB-231 breast
# SK-MEL-5 melanoma = tested on: SK-MEL-5 melanoma
# SF-268 CNS = tested on: SF-268 CNS
# KM12 colon = tested on: KM12 colon
# HCT-15 colon = tested on: HCT-15 colon
# SR leukemia = tested on: SR leukemia
# UO-31 renal = tested on: UO-31 renal
# RXF 393 renal = tested on: RXF 393 renal
# NCI/ADR-RES ovarian = tested on: NCI/ADR-RES ovarian
# LOX IMVI melanoma = tested on: LOX IMVI melanoma
# OVCAR-3 ovarian = tested on: OVCAR-3 ovarian
# U251 CNS = tested on: U251 CNS
# OVCAR-8 ovarian = tested on: OVCAR-8 ovarian
# TK-10 renal = tested on: TK-10 renal
# HL-60(TB) leukemia = tested on: HL-60(TB) leukemia
# OVCAR-4 ovarian = tested on: OVCAR-4 ovarian
# HOP-62 NSCLC = tested on: HOP-62 NSCLC
# UACC-257 melanoma = tested on: UACC-257 melanoma
# ACHN renal = tested on: ACHN renal
# SF-539 CNS = tested on: SF-539 CNS
# CAKI-1 renal = tested on: CAKI-1 renal
# CCRF-CEM leukemia = tested on: CCRF-CEM leukemia
# A498 renal = tested on: A498 renal
# NCI-H460 lung = tested on: NCI-H460 lung
# RPMI-8226 leukemia = tested on: RPMI-8226 leukemia
# UACC-62 melanoma = tested on: UACC-62 melanoma
# PC-3 prostate = tested on: PC-3 prostate
# IGROV1 ovarian = tested on: IGROV1 ovarian
# NCI-H23 lung = tested on: NCI-H23 lung
# NCI-H522 lung = tested on: NCI-H522 lung
# HOP-92 NSCLC = tested on: HOP-92 NSCLC
# SNB-19 CNS = tested on: SNB-19 CNS
# MDA-MB-435 = tested on: MDA-MB-435
# SNB-75 CNS = tested on: SNB-75 CNS
# MCF7 breast = tested on: MCF7 breast
# T-47D breast = tested on: T-47D breast
# SN12C renal = tested on: SN12C renal
# HT29 colon = tested on: HT29 colon
# SF-295 CNS = tested on: SF-295 CNS
# DU-145 prostate = tested on: DU-145 prostate
# NCI-H226 lung = tested on: NCI-H226 lung
# K-562 leukemia = tested on: K-562 leukemia
# OVCAR-5 ovarian = tested on: OVCAR-5 ovarian
# 786-0 renal = tested on: 786-0 renal
# EKVX NSCLC = tested on: EKVX NSCLC
# SK-OV-3 ovarian = tested on: SK-OV-3 ovarian
# A549 NSCLC = tested on: A549 NSCLC
# MOLT-4 leukemia = tested on: MOLT-4 leukemia
# SK-MEL-2 melanoma = tested on: SK-MEL-2 melanoma
# SW-620 colon = tested on: SW-620 colon
# BT-549 breast = tested on: BT-549 breast
# MALME-3M melanoma = tested on: MALME-3M melanoma
# M14 melanoma = tested on: M14 melanoma
compound,measurement,setting,value
COc1cc2c(c3c1c(=O)c1ccccc1n3C)C=C([N+](=O)[O-])C(C)(C)O2,TGI,HS 578T breast,> 100 µM
same,TGI,HCT-116 colon,> 100 µM
same,TGI,MDA-MB-231 breast,> 31.6 µM
same,TGI,SK-MEL-5 melanoma,0.0567 µM
same,TGI,SF-268 CNS,> 100 µM
same,TGI,KM12 colon,> 100 µM
same,TGI,HCT-15 colon,> 100 µM
same,TGI,SR leukemia,> 100 µM
same,TGI,UO-31 renal,> 100 µM
same,TGI,RXF 393 renal,0.328 µM
same,TGI,NCI/ADR-RES ovarian,> 100 µM
same,TGI,LOX IMVI melanoma,> 100 µM
same,TGI,OVCAR-3 ovarian,> 100 µM
same,TGI,U251 CNS,> 100 µM
same,TGI,OVCAR-8 ovarian,> 100 µM
same,TGI,TK-10 renal,> 100 µM
same,TGI,HL-60(TB) leukemia,> 100 µM
same,TGI,OVCAR-4 ovarian,> 100 µM
same,TGI,HOP-62 NSCLC,> 100 µM
same,TGI,UACC-257 melanoma,> 48 µM
same,TGI,ACHN renal,0.464 µM
same,TGI,SF-539 CNS,> 100 µM
same,TGI,CAKI-1 renal,> 100 µM
same,TGI,CCRF-CEM leukemia,> 100 µM
same,TGI,A498 renal,12.5 µM
same,TGI,NCI-H460 lung,0.108 µM
same,TGI,RPMI-8226 leukemia,> 31.6 µM
same,TGI,UACC-62 melanoma,> 100 µM
same,TGI,PC-3 prostate,> 100 µM
same,TGI,IGROV1 ovarian,> 100 µM
same,TGI,NCI-H23 lung,> 100 µM
same,TGI,NCI-H522 lung,> 34.4 µM
same,TGI,HOP-92 NSCLC,> 100 µM
same,TGI,SNB-19 CNS,> 100 µM
same,TGI,MDA-MB-435,0.577 µM
same,TGI,SNB-75 CNS,> 100 µM
same,TGI,MCF7 breast,> 100 µM
same,TGI,T-47D breast,> 100 µM
same,TGI,SN12C renal,> 100 µM
same,TGI,HT29 colon,> 100 µM
same,TGI,SF-295 CNS,> 100 µM
same,TGI,DU-145 prostate,> 100 µM
same,TGI,NCI-H226 lung,> 100 µM
same,TGI,K-562 leukemia,> 100 µM
same,TGI,OVCAR-5 ovarian,> 100 µM
same,TGI,786-0 renal,> 100 µM
same,TGI,EKVX NSCLC,> 100 µM
same,TGI,SK-OV-3 ovarian,> 100 µM
same,TGI,A549 NSCLC,> 100 µM
same,TGI,MOLT-4 leukemia,> 100 µM
Cc1ccccc1Nc1cc(O)c2c(=O)cc(-c3ccccc3)oc2c1,GI50,HCT-116 colon,3.36 µM
same,TGI,HCT-116 colon,> 100 µM
same,GI50,MDA-MB-231 breast,3.58 µM
same,TGI,MDA-MB-231 breast,> 100 µM
same,GI50,SF-268 CNS,4.49 µM
same,TGI,SF-268 CNS,> 100 µM
same,GI50,KM12 colon,2.38 µM
same,TGI,KM12 colon,> 100 µM
same,GI50,HCT-15 colon,0.678 µM
same,TGI,HCT-15 colon,> 100 µM
same,GI50,SR leukemia,0.395 µM
same,TGI,SR leukemia,> 100 µM
same,GI50,RXF 393 renal,2.45 µM
same,TGI,RXF 393 renal,9.56 µM
same,GI50,NCI/ADR-RES ovarian,1.28 µM
same,TGI,NCI/ADR-RES ovarian,> 100 µM
same,GI50,LOX IMVI melanoma,2.75 µM
same,TGI,LOX IMVI melanoma,> 100 µM
same,GI50,SK-MEL-2 melanoma,2.44 µM
same,TGI,SK-MEL-2 melanoma,> 100 µM
same,GI50,OVCAR-3 ovarian,1.72 µM
same,TGI,OVCAR-3 ovarian,4.91 µM
same,GI50,U251 CNS,3.04 µM
same,TGI,U251 CNS,> 100 µM
same,GI50,OVCAR-8 ovarian,3.61 µM
same,TGI,OVCAR-8 ovarian,> 100 µM
same,GI50,HL-60(TB) leukemia,2.16 µM
same,TGI,HL-60(TB) leukemia,> 100 µM
same,GI50,OVCAR-4 ovarian,3.38 µM
same,TGI,OVCAR-4 ovarian,> 100 µM
same,GI50,HOP-62 NSCLC,3.23 µM
same,TGI,HOP-62 NSCLC,> 100 µM
same,GI50,ACHN renal,4.25 µM
same,TGI,ACHN renal,> 100 µM
same,GI50,SF-539 CNS,3.1 µM
same,TGI,SF-539 CNS,> 100 µM
same,GI50,CAKI-1 renal,2.77 µM
same,TGI,CAKI-1 renal,> 100 µM
same,GI50,CCRF-CEM leukemia,2.25 µM
same,TGI,CCRF-CEM leukemia,> 100 µM
same,GI50,NCI-H460 lung,2.89 µM
same,TGI,NCI-H460 lung,> 100 µM
same,GI50,RPMI-8226 leukemia,2.87 µM
same,TGI,RPMI-8226 leukemia,> 100 µM
same,GI50,UACC-62 melanoma,2.89 µM
same,TGI,UACC-62 melanoma,> 100 µM
same,GI50,PC-3 prostate,3.3 µM
same,TGI,PC-3 prostate,> 100 µM
same,GI50,IGROV1 ovarian,3.2 µM
same,TGI,IGROV1 ovarian,> 100 µM
same,GI50,NCI-H23 lung,4.75 µM
same,TGI,NCI-H23 lung,> 100 µM
same,GI50,NCI-H522 lung,1.79 µM
same,TGI,NCI-H522 lung,> 100 µM
same,GI50,HOP-92 NSCLC,3.51 µM
same,TGI,HOP-92 NSCLC,> 100 µM
same,GI50,SNB-19 CNS,2.98 µM
same,TGI,SNB-19 CNS,> 100 µM
same,GI50,MDA-MB-435,0.315 µM
same,TGI,MDA-MB-435,1.93 µM
same,GI50,MCF7 breast,0.821 µM
same,TGI,MCF7 breast,> 100 µM
same,GI50,T-47D breast,2.96 µM
same,TGI,T-47D breast,> 100 µM
same,GI50,SW-620 colon,0.734 µM
same,TGI,SW-620 colon,> 100 µM
same,GI50,BT-549 breast,4.03 µM
same,TGI,BT-549 breast,> 100 µM
same,GI50,SN12C renal,4.05 µM
same,TGI,SN12C renal,> 100 µM
same,GI50,HT29 colon,3.25 µM
same,TGI,HT29 colon,> 100 µM
same,GI50,SF-295 CNS,2.36 µM
same,TGI,SF-295 CNS,> 100 µM
same,GI50,DU-145 prostate,3.78 µM
same,TGI,DU-145 prostate,> 100 µM
same,GI50,MALME-3M melanoma,2.43 µM
same,TGI,MALME-3M melanoma,> 100 µM
same,GI50,NCI-H226 lung,4.11 µM
same,TGI,NCI-H226 lung,> 100 µM
same,GI50,K-562 leukemia,0.469 µM
same,TGI,K-562 leukemia,> 100 µM
same,GI50,OVCAR-5 ovarian,> 100 µM
same,TGI,OVCAR-5 ovarian,> 100 µM
same,GI50,786-0 renal,4.42 µM
same,TGI,786-0 renal,> 100 µM
same,GI50,EKVX NSCLC,3.35 µM
same,TGI,EKVX NSCLC,> 100 µM
same,GI50,M14 melanoma,2.39 µM
same,TGI,M14 melanoma,> 100 µM
same,GI50,SK-OV-3 ovarian,5.56 µM
same,TGI,SK-OV-3 ovarian,> 100 µM
same,GI50,A549 NSCLC,2.11 µM
same,TGI,A549 NSCLC,> 100 µM
same,GI50,MOLT-4 leukemia,2.66 µM
same,TGI,MOLT-4 leukemia,> 100 µM
